In series [1] the target is T1, Serine/threonine-protein kinase TNNI3K (Homo sapiens, UniProt Q59H18).
T1 sequence (Q59H18 whole entry): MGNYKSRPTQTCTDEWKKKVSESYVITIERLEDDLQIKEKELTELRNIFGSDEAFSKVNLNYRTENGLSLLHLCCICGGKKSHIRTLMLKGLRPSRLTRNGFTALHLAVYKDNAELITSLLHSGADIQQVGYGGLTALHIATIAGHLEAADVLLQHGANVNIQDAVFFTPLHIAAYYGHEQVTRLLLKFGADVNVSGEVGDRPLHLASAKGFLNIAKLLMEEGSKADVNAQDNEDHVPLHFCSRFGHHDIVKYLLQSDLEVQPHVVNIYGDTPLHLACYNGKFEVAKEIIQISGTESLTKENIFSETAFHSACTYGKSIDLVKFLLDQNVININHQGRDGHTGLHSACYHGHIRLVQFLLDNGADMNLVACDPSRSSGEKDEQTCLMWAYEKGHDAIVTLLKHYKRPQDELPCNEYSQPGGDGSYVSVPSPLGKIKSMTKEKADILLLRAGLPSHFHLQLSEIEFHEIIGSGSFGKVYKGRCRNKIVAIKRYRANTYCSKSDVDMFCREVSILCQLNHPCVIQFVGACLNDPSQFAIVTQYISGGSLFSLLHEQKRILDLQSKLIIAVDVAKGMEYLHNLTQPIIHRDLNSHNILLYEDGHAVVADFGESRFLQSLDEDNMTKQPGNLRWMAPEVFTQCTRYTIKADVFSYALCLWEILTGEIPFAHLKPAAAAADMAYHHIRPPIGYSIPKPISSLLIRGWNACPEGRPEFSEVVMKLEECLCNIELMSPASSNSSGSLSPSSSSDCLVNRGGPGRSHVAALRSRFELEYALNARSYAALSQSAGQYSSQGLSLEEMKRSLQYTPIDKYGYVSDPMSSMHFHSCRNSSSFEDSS
Kind of series: Inhibition of 5-({[2-({[3-({4-[(5-hydroxy-2-methylphenyl)amino]-2-pyrimidinyl}amino)phenyl]carbonyl}amino)-ethyl]amino}carbonyl)-2-(6-hydroxy-3-oxo-3H-xanthen-9-yl)benzoic acid binding to human full length His/MBP-fused TNNI3K expressed in baculovirus expression system after 60 mins by fluorescence polarization assay. (In general: In fluorescence polarisation assays a small probe gives low polarisation when free and higher when bound to something large.)

The nature of series [2]: Clearance in Sprague-Dawley rat plasma at 1 mg/kg, iv administered as 30 mins infusion by LC-MS/MS analysis. In kind it is ADME, organism-based.
For the next series, the system named is Rattus norvegicus. Kind of series: Dose normalized AUC in Sprague-Dawley rat plasma at 2 mg/kg, po administered as gastric bolus dose by LC-MS/MS analysis. The series is classed as ADME, organism-based. The settings on record: in vivo.
Series [3] is described as follows: Oral bioavailability in Sprague-Dawley rat plasma at 2 mg/kg administered as gastric bolus dose by LC-MS/MS analysis. In kind it is ADME, organism-based.
For series [4], the target named is Epidermal growth factor receptor (Homo sapiens, UniProt P00533). Kind of series: Inhibition of EGFR (unknown origin).
Series [5] deals with T1, Serine/threonine-protein kinase TNNI3K. Kind of series: Inhibition of human Myc-tagged TNNI3K autophosphorylation expressed in HEKMSR2 cells after 30 mins by DELFIA. In kind it is cell-based.
Series [6] can be described thus: Selectivity index, ratio of IC50 for EGFR (unknown origin) to IC50 for human full length His/MBP-fused TNNI3K expressed in baculovirus expression system.
The target in series [7] is Serine/threonine-protein kinase B-raf (Homo sapiens, UniProt P15056). Kind of series: Inhibition of full length His6-tagged BRAF (unknown origin) expressed in baculovirus expression system assessed as reduction in MEK phosphorylation by measuring ADP production by BRAMA.
A short description of series [8]: Selectivity index, ratio of IC50 for full length His6-tagged BRAF (unknown origin) expressed in baculovirus expression system to IC50 for human full length His/MBP-fused TNNI3K expressed in baculovirus expression system.

Epidermal growth factor receptor, sequence (P00533 whole entry): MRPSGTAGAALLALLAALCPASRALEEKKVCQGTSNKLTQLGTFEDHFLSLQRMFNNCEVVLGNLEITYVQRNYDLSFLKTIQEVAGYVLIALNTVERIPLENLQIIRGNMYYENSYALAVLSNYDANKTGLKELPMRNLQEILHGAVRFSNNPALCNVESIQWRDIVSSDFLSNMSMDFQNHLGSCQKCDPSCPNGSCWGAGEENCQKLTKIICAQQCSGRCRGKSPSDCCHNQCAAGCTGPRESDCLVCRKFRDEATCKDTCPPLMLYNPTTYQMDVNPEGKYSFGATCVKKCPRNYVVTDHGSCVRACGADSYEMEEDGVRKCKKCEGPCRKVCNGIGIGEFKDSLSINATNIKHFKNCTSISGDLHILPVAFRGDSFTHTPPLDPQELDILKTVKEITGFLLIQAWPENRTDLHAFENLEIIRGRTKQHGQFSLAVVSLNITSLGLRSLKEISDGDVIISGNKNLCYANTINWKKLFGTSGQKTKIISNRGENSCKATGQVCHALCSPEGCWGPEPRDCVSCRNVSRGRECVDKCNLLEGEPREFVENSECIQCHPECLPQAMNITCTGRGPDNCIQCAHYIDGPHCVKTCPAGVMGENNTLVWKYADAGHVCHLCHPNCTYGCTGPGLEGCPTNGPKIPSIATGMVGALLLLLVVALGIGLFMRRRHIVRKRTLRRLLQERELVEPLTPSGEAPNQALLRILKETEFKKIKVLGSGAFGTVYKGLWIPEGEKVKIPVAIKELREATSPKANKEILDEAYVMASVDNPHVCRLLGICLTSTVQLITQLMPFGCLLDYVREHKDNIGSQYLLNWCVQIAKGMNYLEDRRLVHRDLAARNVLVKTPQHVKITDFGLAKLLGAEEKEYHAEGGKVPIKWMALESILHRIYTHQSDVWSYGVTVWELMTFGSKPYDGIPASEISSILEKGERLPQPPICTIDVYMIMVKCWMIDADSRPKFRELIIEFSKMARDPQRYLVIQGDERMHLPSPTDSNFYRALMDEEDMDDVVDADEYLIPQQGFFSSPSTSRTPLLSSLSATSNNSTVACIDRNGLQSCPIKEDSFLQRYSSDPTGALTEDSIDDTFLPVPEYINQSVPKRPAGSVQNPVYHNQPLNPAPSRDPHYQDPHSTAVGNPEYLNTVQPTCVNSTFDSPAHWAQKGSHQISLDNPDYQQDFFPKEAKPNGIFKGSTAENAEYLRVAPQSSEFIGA
Serine/threonine-protein kinase B-raf, sequence (P15056 whole entry, the tested form may be a part): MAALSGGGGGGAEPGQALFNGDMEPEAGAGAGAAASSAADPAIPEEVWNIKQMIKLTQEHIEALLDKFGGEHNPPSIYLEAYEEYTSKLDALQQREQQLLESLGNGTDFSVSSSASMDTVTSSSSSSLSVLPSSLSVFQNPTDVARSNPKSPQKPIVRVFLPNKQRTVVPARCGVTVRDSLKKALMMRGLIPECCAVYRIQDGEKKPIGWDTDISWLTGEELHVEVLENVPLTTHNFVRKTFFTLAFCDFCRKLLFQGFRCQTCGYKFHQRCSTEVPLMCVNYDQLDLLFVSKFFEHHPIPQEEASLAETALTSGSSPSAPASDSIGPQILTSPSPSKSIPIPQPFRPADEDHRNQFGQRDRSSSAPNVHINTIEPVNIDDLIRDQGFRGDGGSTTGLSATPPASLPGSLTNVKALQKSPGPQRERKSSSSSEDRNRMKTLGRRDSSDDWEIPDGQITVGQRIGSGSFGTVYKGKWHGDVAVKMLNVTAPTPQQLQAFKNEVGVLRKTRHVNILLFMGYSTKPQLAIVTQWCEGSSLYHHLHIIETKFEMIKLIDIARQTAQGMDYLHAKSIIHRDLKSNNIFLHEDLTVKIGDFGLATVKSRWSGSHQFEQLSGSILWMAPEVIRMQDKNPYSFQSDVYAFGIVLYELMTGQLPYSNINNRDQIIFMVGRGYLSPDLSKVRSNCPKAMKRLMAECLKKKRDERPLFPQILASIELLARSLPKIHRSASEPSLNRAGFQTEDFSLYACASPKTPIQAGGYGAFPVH

On to `CNS(=O)(=O)c1ccc(N(C)C)c(Nc2cc(Nc3ccc(Cl)cc3)ncn2)c1`, for which, in series [1], the IC50 (as a rule, the midpoint of a concentration-inhibition curve) amounted to 79 nM. In [2], the clearance (as a rule, the rate of elimination divided by the concentration) was 52 mL/min/kg. The compound also gave an AUC/dose in the series with Rattus norvegicus of 0.096 kg·h/L. Moreover, the bioavailability – broadly, dose-corrected exposure relative to a reference, in per cent – in series [3] turned out to be 30%.
On to `CNS(=O)(=O)c1ccc(OCC(F)(F)F)c(Nc2cc(Nc3ccc(Cl)cc3)ncn2)c1`, for which the clearance in series [2] came out at 20 mL/min/kg. Moreover, in the series on Rattus norvegicus, the AUC/dose came to 0.32 kg·h/L. The compound also showed a bioavailability in series [3] of 37%.
With `CNS(=O)(=O)c1ccc(F)c(Nc2cc(Nc3ccc(Cl)cc3)ncn2)c1`, the AUC/dose in the series with Rattus norvegicus was determined as 1.1 kg·h/L.
As to `CNS(=O)(=O)c1cccc(Nc2cc(Nc3ccc(Cl)cc3)ncn2)c1`, the values for the IC50 in series [1] and in series [4] were 79 nM and 13 nM, respectively. For the same compound, the clearance in [2] turned out to be 23 mL/min/kg. The AUC/dose with Rattus norvegicus came to 0.71 kg·h/L. For the same compound, the bioavailability in [3] worked out at 100%.
As for `CNS(=O)(=O)c1ccc(OC(F)(F)F)c(Nc2cc(Nc3ccc(Cl)cc3)ncn2)c1`, half-maximal inhibition in [5] (IC50) required 320 nM. In addition, the clearance in series [2] was determined as 16 mL/min/kg. For the same compound, the AUC/dose in the series on Rattus norvegicus amounted to 0.86 kg·h/L. Besides, in series [3], the bioavailability is 84%.
`CNS(=O)(=O)c1ccc(Cl)c(Nc2cc(Nc3ccc(Cl)cc3)ncn2)c1` gave a clearance in [2] of 14 mL/min/kg. In addition, the AUC/dose in the series on Rattus norvegicus is 0.7 kg·h/L. Besides, the bioavailability in series [3] is 55%.
Turning to `CNS(=O)(=O)c1ccc(SC)c(Nc2cc(Nc3ccc(Cl)cc3)ncn2)c1`, the clearance in series [2] was found to be 4.5 mL/min/kg. Besides, the AUC/dose in the series on Rattus norvegicus was found to be 2.1 kg·h/L. Further, the bioavailability in series [3] was determined as 52%.
In series [2], `CNS(=O)(=O)c1ccc(OC)c(Nc2cc(Nc3ccc(Cl)cc3)ncn2)c1` registered a clearance of 26 mL/min/kg. This compound also returned an AUC/dose in the series on Rattus norvegicus of 0.69 kg·h/L. This compound came in with a bioavailability in series [3] of 100%.
Compound `CNS(=O)(=O)c1cccc(Nc2ccnc(Nc3cccc(C)c3)c2)c1` came in with an IC50 in series [1] of 5000 nM.
With `CNS(=O)(=O)c1cccc(Nc2cc(Nc3ccc(Cl)cn3)ncn2)c1`, the IC50 amounted to 20 nM in series [1] and 630 nM in [4]. For the same compound, the “Ratio IC50” value in series [6] was 32. Also, the clearance in [2] is 16 mL/min/kg. Further, the AUC/dose in the series on Rattus norvegicus amounted to 0.67 kg·h/L. In addition, the bioavailability in [3] turned out to be 65%.
For `CNS(=O)(=O)c1cccc(Nc2cc(Nc3cccc(Cl)c3)ncn2)c1`, in series [1], the IC50 came to 79 nM. In addition, the clearance in series [2] amounted to 52 mL/min/kg. The AUC/dose with Rattus norvegicus was 0.064 kg·h/L. In [3], this compound yielded a bioavailability of 20%.
Compound `CNS(=O)(=O)c1cccc(Nc2ncnc(Nc3ccc(Cl)cc3)n2)c1` had an IC50 in series [1] of 50 nM.
Take `CNS(=O)(=O)c1ccc(OC(F)(F)F)c(Nc2cc(Nc3ccc(Cl)cn3)ncn2)c1`: in series [5], the IC50 came to 63 nM. Further, in series [2], the clearance amounted to 12 mL/min/kg. Besides, in the series on Rattus norvegicus, the AUC/dose came to 0.91 kg·h/L. Besides, in [3], the bioavailability worked out at 67%.
In turn, `CNS(=O)(=O)c1cccc(Nc2cc(Nc3ccccc3F)ncn2)c1` yielded an IC50 in series [1] of 630 nM.
`CNS(=O)(=O)c1cccc(Nc2cc(Nc3cccc([N+](=O)[O-])c3)ncn2)c1`: the IC50 in series [5] is 500 nM; in series [4], 4 nM.
In [1], `CNS(=O)(=O)c1cccc(Nc2ncnc(Nc3cccc(C)c3)n2)c1` gave an IC50 of 20 nM.
Still for that read-out and setting: for `CNS(=O)(=O)c1cccc(Nc2cc(Nc3ccccc3)ncn2)c1` the value was 63 nM.
In the case of `CNS(=O)(=O)c1ccc(S(=O)(=O)C(C)C)c(Nc2cc(Nc3ccc(Cl)cn3)ncn2)c1`, the IC50 was no more than 10 nM in [1] and 500 nM in series [7]. The compound also registered an AUC/dose in the series on Rattus norvegicus of 0.27 kg·h/L. In addition, in series [8], the “Ratio IC50” value is “>=50”.
Take `CNS(=O)(=O)c1cccc(Nc2cc(Nc3ccc(OC)cc3)ncn2)c1`: the IC50 in [1] is 160 nM.
Regarding `CNS(=O)(=O)c1cccc(N(C)c2cc(Nc3cccc(C)c3)ncn2)c1`, the IC50 in [1] is 8000 nM; in series [4] it was 2000 nM. Also, the “Ratio IC50” value in [6] stood at 0.25.
`CNS(=O)(=O)c1ccc(S(C)(=O)=O)c(Nc2cc(Nc3ccc(Cl)cn3)ncn2)c1`: the IC50 in series [1] was 13 nM; in series [7] it was 200 nM. In addition, the AUC/dose in the series on Rattus norvegicus came out at 0.76 kg·h/L. The “Ratio IC50” value in [8] is recorded as 15.
Consider `CNS(=O)(=O)c1cccc(Nc2ccnc(Nc3cccc(C)c3)n2)c1`, for which the IC50 in series [1] came to 630 nM.
In series [1], `CNS(=O)(=O)c1cccc(Nc2cc(Nc3ccc(S(C)(=O)=O)cc3)ncn2)c1` showed a 50% inhibitory concentration (IC50) of 79 nM.
Still for that read-out and setting: for `CNS(=O)(=O)c1cccc(Nc2cc(Nc3cccc(OC)c3)ncn2)c1` the value was 63 nM.
In the case of `CNS(=O)(=O)c1cccc(Nc2cc(Nc3cccc(C(C)C)c3)ncn2)c1`, the half-inhibitory concentration (IC50) in series [1] was determined as 50 nM; in series [4], 25 nM. The “Ratio IC50” value in series [6] amounted to 0.5.
`CNc1cc(Nc2cccc(S(=O)(=O)NC)c2)ncn1` returned an IC50 in series [1] of 800 nM.
Turning to `CNS(=O)(=O)c1cccc(Nc2cc(Nc3ccccc3C)ncn2)c1`, the IC50 in series [1] came to 1300 nM.
For the compound `CNS(=O)(=O)c1cccc(Nc2cc(N(C)c3cccc(C)c3)ncn2)c1`, the IC50 was 2000 nM in series [1] and 20 nM in [4]. Moreover, the “Ratio IC50” value in series [6] is 0.01.
In the case of `CNS(=O)(=O)c1ccc(OCC(F)(F)F)c(Nc2cc(Nc3ccc(Cl)cn3)ncn2)c1`, the IC50 in series [1] is no more than 10 nM; in series [7] it was 13 nM. In series [2], this compound had a clearance of 7.4 mL/min/kg. Moreover, in the series on Rattus norvegicus, the AUC/dose is 2.3 kg·h/L. In addition, in series [3], the bioavailability turned out to be 99%.
Regarding `CNS(=O)(=O)c1ccc(S(=O)(=O)C(C)(C)C)c(Nc2cc(Nc3ccc(Cl)cn3)ncn2)c1`, the results for the IC50 in series [1] and in series [7] were no more than 10 nM and 2000 nM, respectively. The compound also registered an AUC/dose in the series with Rattus norvegicus of 0.076 kg·h/L. The “Ratio IC50” value in series [8] is given as “>=200”.
Consider `CNS(=O)(=O)c1cccc(Nc2cc(Nc3cccc(Br)c3)ncn2)c1`, for which the IC50 in series [1] was 79 nM. The compound also showed a clearance in series [2] of 53 mL/min/kg. For the same compound, the AUC/dose in the series on Rattus norvegicus turned out to be 0.1 kg·h/L. Moreover, in [3], the bioavailability turned out to be 33%.
As for `CNS(=O)(=O)c1cccc(Nc2cc(Nc3cccc(C)c3)ncn2)c1`, the IC50 in [1] was 32 nM; in series [4], 3 nM. Also, the “Ratio IC50” value in series [6] was 0.1. Further, the clearance in series [2] was found to be 86 mL/min/kg. For the same compound, in the series on Rattus norvegicus, the AUC/dose is 0.037 kg·h/L. In [3], the bioavailability was 19%.
In series [1], `CNS(=O)(=O)c1cccc(Nc2cc(Nc3cccc(S(C)(=O)=O)c3)ncn2)c1` registered an IC50 of 200 nM.
`CNS(=O)(=O)c1cccc(Nc2cc(Nc3ccc(C(F)(F)F)cn3)ncn2)c1` displayed an IC50 in series [1] of 16 nM.
On to `CNS(=O)(=O)c1ccc(OC)c(Nc2cc(Nc3ccc(Cl)cn3)ncn2)c1`, for which the IC50 in series [1] was no more than 10 nM; in series [7] it was 20 nM. Besides, the clearance in series [2] is 9.9 mL/min/kg. Moreover, the AUC/dose in the series with Rattus norvegicus worked out at 1.3 kg·h/L. In series [3], the bioavailability was 75%. Further, in series [8], the “Ratio IC50” value is given as “>=2”.
In series [1], `CNS(=O)(=O)c1cccc(Nc2cc(Nc3ccc(C(F)(F)F)cc3)ncn2)c1` returned an IC50 of 79 nM.
With `CNS(=O)(=O)c1cccc(Nc2cc(Nc3ccccc3OC)ncn2)c1`, the IC50 in series [1] stood at 3200 nM.
Same read-out and setting: the value for `CNS(=O)(=O)c1cccc(Nc2cc(Nc3ccc(C)cc3)ncn2)c1` was 79 nM.
As to `CNS(=O)(=O)c1cccc(Nc2cc(Nc3cccc(S(=O)(=O)NC)c3)ncn2)c1`, the values for the IC50 in [1] and in series [4] were 79 nM and 1600 nM, respectively. Moreover, in [6], the “Ratio IC50” value was determined as 20.
